# Target: T1, hNav1.7 and the β1 subunit (Homo sapiens, UniProt Q15858)
# T1 construct: expressed in transfected cells
# Test: Tritiated compound competitive binding to membranes from cells heterologously expressing hNav1.7 and the β1 subunit (LBA)
# Conditions: competition with 100 pM [3H]compound, 18 h, room temperature; IC50 by 4 parameter logistic model
# Procedure: Example 235 Tritiated Compound Binding to Membranes Isolated from Cells that Heterologously Express hNav1.7 and the β1 Subunit
# Preparation of membranes containing recombinantly expressed sodium channels: Frozen recombinant cell pellets were thawed on ice and diluted to 4 times the cell pellet weight with ice cold 50 mM Tris HCl, pH 7.4 buffer. The cell suspensions were homogenized on ice using a motorized glass dounce homogeniser. Homogenates were further diluted 8.4 times with ice cold 50 mM Tris HCl, pH 7.4 buffer and then centrifuged at 200×g at 4° C. for 15 min. The supernatants were collected and centrifuged at 10000×g at 4° C. for 50 min. The pellets were then re-suspended in 100 mM NaCl, 20 mM Tris HCl, pH 7.4 buffer containing 1% v/v protease inhibitors (Calbiochem) and re-homogenized on ice. The homogenized membranes were then processed through a syringe equipped with a 26 gauge needle. Protein concentrations were determined by Bradford Assay and the membranes were stored at −80° C.
# Radioligand Binding Studies:
# Saturation experiments. A competitive NaV1.7 inhibitor having a methyl group was tritiated. Three tritiums were incorporated in place of methyl hydrogens to generate [^3H]compound. Binding of this radioligand was performed in 5 mL borosilicate glass test tubes at room temperature. Binding was initiated by adding membranes to increasing concentrations of [^3H]compound in 100 mM NaCl, 20 mM Tris HCl, pH 7.4 buffer containing 0.01% w/v bovine serum albumin (BSA) for 18 h. […] After 18 h, the reactants were filtered through GF/C glass fiber filters presoaked in 0.5% w/v polyethylene imine. […] [^3H]compound bound to filters was quantified by liquid scintillation counting.
# Competitive Binding Experiments:
# Binding reactions were performed in 96-well polypropylene plates at room temperature for 18 h. In 360 μL, membranes were incubated with 100 pM [^3H]compound and increasing concentrations of Test Compound. […] Reactions were transferred and filtered through 96-well glass fiber/C filter plates presoaked with 0.5% polyethylene imine. The filtered reactions were washed 5 times with 200 μL ice cold buffer containing 0.25% BSA. Bound radioactivity was determined by liquid scintillation counting.
# Data Analysis: For saturation experiments, non-specific binding was subtracted from total binding to provide specific binding and these values were recalculated in terms of pmol ligand bound per mg protein. Saturation curves were constructed and dissociation constants were calculated using the single site ligand binding model: Beq=(Bmax*X)/(X+Kd), where Beq is the amount of ligand bound at equilibrium, Bmax is the maximum receptor density, Kd is the dissociation constant for the ligand, and X is the free ligand concentration. For competition studies percent inhibition was determined and IC50 values were calculated using a 4 parameter logistic model (% inhibition=(A+((B−A)/(1+((x/C)^D)))) using XLfit, where A and B are the maximal and minimum inhibition respectively, C is the IC50 concentration and D is the (Hill) slope.
# T1 sequence (Q15858 whole entry): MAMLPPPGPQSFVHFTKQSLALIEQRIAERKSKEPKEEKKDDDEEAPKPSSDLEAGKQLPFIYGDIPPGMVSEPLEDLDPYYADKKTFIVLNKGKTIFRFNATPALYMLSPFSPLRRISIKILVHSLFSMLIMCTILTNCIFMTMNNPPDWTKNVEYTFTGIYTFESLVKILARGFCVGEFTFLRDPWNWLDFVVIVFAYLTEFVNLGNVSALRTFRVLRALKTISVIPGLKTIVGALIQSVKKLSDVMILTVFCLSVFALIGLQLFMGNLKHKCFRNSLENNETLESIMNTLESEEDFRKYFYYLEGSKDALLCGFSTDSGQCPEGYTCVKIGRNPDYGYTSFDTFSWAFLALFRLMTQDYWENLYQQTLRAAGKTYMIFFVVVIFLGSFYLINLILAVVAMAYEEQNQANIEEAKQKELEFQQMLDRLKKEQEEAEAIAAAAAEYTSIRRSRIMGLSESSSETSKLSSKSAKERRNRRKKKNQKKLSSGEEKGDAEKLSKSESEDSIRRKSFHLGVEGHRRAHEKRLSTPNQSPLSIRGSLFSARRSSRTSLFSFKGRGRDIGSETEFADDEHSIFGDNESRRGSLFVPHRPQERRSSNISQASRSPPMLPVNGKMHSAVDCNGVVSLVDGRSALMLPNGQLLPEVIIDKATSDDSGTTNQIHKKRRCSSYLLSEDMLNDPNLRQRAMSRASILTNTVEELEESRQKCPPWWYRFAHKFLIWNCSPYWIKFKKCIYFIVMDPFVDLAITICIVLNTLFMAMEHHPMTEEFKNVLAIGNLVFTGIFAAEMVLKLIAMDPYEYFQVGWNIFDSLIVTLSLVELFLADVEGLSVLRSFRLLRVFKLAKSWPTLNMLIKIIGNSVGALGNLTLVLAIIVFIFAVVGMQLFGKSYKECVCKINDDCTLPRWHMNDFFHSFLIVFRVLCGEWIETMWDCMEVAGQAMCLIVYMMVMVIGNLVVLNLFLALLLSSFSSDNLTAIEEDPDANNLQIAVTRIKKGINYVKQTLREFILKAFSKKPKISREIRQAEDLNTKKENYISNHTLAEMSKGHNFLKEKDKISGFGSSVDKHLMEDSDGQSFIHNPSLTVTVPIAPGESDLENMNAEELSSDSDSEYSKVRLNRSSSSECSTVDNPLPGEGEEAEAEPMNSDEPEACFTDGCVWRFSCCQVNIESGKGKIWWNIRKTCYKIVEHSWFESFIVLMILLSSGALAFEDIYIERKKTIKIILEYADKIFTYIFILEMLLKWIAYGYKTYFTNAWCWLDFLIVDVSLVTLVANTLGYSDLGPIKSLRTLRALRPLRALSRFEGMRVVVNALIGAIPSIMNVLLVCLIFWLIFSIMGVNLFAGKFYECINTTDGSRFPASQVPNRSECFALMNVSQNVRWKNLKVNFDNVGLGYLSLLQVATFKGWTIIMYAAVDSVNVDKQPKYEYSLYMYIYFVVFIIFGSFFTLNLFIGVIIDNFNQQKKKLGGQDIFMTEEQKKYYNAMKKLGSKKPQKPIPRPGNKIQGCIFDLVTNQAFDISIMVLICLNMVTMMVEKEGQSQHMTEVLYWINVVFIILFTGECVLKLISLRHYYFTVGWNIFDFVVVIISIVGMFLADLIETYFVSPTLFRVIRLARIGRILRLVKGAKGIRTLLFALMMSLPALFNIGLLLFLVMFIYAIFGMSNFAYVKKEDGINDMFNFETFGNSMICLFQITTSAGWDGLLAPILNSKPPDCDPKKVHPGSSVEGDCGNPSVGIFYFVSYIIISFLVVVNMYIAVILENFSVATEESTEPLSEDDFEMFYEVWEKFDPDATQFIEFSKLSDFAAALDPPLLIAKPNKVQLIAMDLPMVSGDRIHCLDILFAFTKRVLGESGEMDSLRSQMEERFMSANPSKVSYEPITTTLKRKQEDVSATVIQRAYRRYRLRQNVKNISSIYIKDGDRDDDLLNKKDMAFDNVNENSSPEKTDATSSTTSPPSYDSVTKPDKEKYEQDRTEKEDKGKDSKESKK
# T1 sequence (Q07699 19-218 partner): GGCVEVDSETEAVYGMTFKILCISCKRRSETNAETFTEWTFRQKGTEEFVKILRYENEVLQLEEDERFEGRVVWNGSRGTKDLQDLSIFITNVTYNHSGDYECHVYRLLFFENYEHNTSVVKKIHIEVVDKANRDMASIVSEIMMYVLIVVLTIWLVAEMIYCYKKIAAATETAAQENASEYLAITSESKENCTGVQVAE
row,Compound,Nav1.7 (LBA) [µM]
1,"O=S(=O)(Nc1ncns1)c1ccc2c(c1)OCC[C@H]2N1CCC(F)(F)C[C@H]1c1ccc(F)cc1 (single isomer, unassigned) [Example 133]",0.0467
2,"O=S(=O)(Nc1ncns1)c1ccc2c(c1)OCC[C@@H]2N1CCC(F)(F)C[C@H]1c1ccc(F)cc1 (single isomer, unassigned) [Example 134]",0.00295
3,"CC(C)(O)[C@H]1CCN([C@@H]2CCOc3cc(S(=O)(=O)Nc4ncns4)ccc32)[C@@H](c2ccc(F)cc2)C1 (single isomer, unassigned) [Example 135]",0.0271
4,"CC(C)(O)[C@H]1CCN([C@H]2CCOc3cc(S(=O)(=O)Nc4ncns4)ccc32)[C@@H](c2ccc(F)cc2)C1 (single isomer, unassigned) [Example 136]",0.0194
5,"CC(C)(O)[C@@H]1CCN([C@@H]2CCOc3cc(S(=O)(=O)Nc4ncns4)ccc32)[C@H](c2ccc(F)cc2)C1 (single isomer, unassigned) [Example 137]",0.736
6,"CC(C)(O)[C@@H]1CCN([C@H]2CCOc3cc(S(=O)(=O)Nc4ncns4)ccc32)[C@H](c2ccc(F)cc2)C1 (single isomer, unassigned) [Example 138]",0.0035
7,"O=S(=O)(Nc1ncns1)c1ccc2c(c1)OCC[C@H]2N1CCC(F)(F)C[C@H]1c1ccccc1 (single isomer, unassigned) [Example 139]",2.29
8,"O=S(=O)(Nc1ncns1)c1ccc2c(c1)OCC[C@@H]2N1CCC(F)(F)C[C@H]1c1ccccc1 (single isomer, unassigned) [Example 140]",0.0144
9,"O=S(=O)(Nc1ncns1)c1ccc2c(c1)OCC[C@H]2N1CCC(F)(F)C[C@@H]1c1ccccc1 (single isomer, unassigned) [Example 141]",0.486
10,"O=S(=O)(Nc1ncns1)c1ccc2c(c1)OCC[C@@H]2N1CCC(F)(F)C[C@@H]1c1ccccc1 (single isomer, unassigned) [Example 142]",0.0173
11,"O=S(=O)(Nc1ncns1)c1ccc2c(c1)OCC[C@@H]2N1CC[C@@H](C(F)(F)F)C[C@H]1c1ccn[nH]1 (single isomer, unassigned) [Example 143]",8.9
12,"O=S(=O)(Nc1ncns1)c1ccc2c(c1)OCC[C@H]2N1CC[C@@H](C(F)(F)F)C[C@H]1c1ccn[nH]1 (single isomer, unassigned) [Example 144]",0.282
13,"O=S(=O)(Nc1ncns1)c1ccc2c(c1)OCC[C@@H]2N1CC[C@H](C(F)(F)F)C[C@@H]1c1ccn[nH]1 (single isomer, unassigned) [Example 145]",0.0117
14,"O=S(=O)(Nc1ncns1)c1ccc2c(c1)OCC[C@H]2N1CC[C@H](C(F)(F)F)C[C@@H]1c1ccn[nH]1 (single isomer, unassigned) [Example 146]",0.308
15,"O=S(=O)(Nc1ncns1)c1ccc2c(c1)OCC[C@@H]2N1CCCC[C@H]1CCO (single isomer, unassigned) [Example 151]",3.51
16,"O=S(=O)(Nc1ncns1)c1ccc2c(c1)OCC[C@@H]2N1CCCC[C@@H]1CCO (single isomer, unassigned) [Example 152]",3.31
17,"O=S(=O)(Nc1ncns1)c1ccc2c(c1)OCC[C@@H]2N1CCCC[C@H]1C1CCCCC1 (single isomer, unassigned) [Example 155]",4.35
18,"O=S(=O)(Nc1ncns1)c1ccc2c(c1)OCC[C@@H]2N1CCCC[C@@H]1C1CCCCC1 (single isomer, unassigned) [Example 156]",0.907

row,Compound,Nav1.7 (LBA) [µM]
1,"O=S(=O)(Nc1ncns1)c1ccc2c(c1)C(F)(F)CC[C@@H]2N1CCCC[C@H]1c1cccnc1 (single isomer, unassigned) [Example 227]",0.249
2,"O=S(=O)(Nc1ncns1)c1ccc2c(c1)C(F)(F)CC[C@H]2N1CCCC[C@H]1c1cccnc1 (single isomer, unassigned) [Example 228]",0.504
3,"Cn1nccc1[C@@H]1CCCCN1[C@H]1CCOc2cc(S(=O)(=O)Nc3ncns3)ccc21 [Example 41, (S)-4-((S)-2-(1-methyl-1H-pyrazol-5-yl)piperidin-1-yl)-N-(1,2,4-thiadiazol-5-yl)chromane-7-sulfonamide]",0.00609
4,"Cn1nccc1[C@H]1CCCCN1[C@H]1CCOc2cc(S(=O)(=O)Nc3ncns3)ccc21 [Example 42, (S)-4-((R)-2-(1-methyl-1H-pyrazol-5-yl)piperidin-1-yl)-N-(1,2,4-thiadiazol-5-yl)chromane-7-sulfonamide]",0.142
5,"O=S(=O)(Nc1ncns1)c1ccc2c(c1)OCC[C@@H]2N1CCC(C(F)(F)F)CC1 [Example 44, (S)—N-(1,2,4-thiadiazol-5-yl)-4-(4-(trifluoromethyl)piperidin-1-yl)chromane-7-sulfonamide]",0.551
6,"O=S(=O)(Nc1ncns1)c1ccc(CN2CCC[C@H]2c2ccccc2)c(Cl)c1 [Example 48, (S)-3-chloro-4-((2-phenylpyrrolidin-1-yl)methyl)-N-(1,2,4-thiadiazol-5-yl)benzenesulfonamide]",1.48
7,"O=S(=O)(Nc1ncns1)c1ccc(CN2CCC[C@@H]2c2ccccc2)c(Cl)c1 [Example 49, (R)-3-chloro-4-((2-phenylpyrrolidin-1-yl)methyl)-N-(1,2,4-thiadiazol-5-yl)benzenesulfonamide]",6.81
8,"O=S(=O)(Nc1ncns1)c1ccc(CN2CCCCC2c2ccccc2)c(Cl)c1 (centres unmarked) [Example 63, 3-chloro-4-((2-phenylpiperidin-1-yl)methyl)-N-(1,2,4-thiadiazol-5-yl)benzenesulfonamide]",0.609
9,"O=S(=O)(Nc1ncns1)c1ccc(CN2CCCC[C@@H]2c2ccccc2)c(Cl)c1 [Example 64, (R)-3-chloro-4-((2-phenylpiperidin-1-yl)methyl)-N-(1,2,4-thiadiazol-5-yl)benzenesulfonamide]",0.965
10,"O=S(=O)(Nc1ncns1)c1ccc(CN2CCCC[C@H]2c2ccccc2)c(Cl)c1 [Example 65, (S)-3-chloro-4-((2-phenylpiperidin-1-yl)methyl)-N-(1,2,4-thiadiazol-5-yl)benzenesulfonamide]",5.51
11,"O=S(=O)(Nc1ncns1)c1cc(Cl)c(CN2CCCCC2c2ccccc2)cc1F (centres unmarked) [Example 68, 5-chloro-2-fluoro-4-((2-phenylpiperidin-1-yl)methyl)-N-(1,2,4-thiadiazol-5-yl)benzenesulfonamide]",0.334
12,"O=S(=O)(Nc1ncns1)c1cc(Cl)c(CN2CCCCC2c2ccncc2)cc1F (centres unmarked) [Example 69, 5-chloro-2-fluoro-4-((2-(pyridin-4-yl)piperidin-1-yl)methyl)-N-(1,2,4-thiadiazol-5-yl)benzenesulfonamide]",0.21
13,"O=S(=O)(Nc1ncns1)c1cc(Cl)c(CN2CCCC[C@H]2c2cccnc2)cc1F [Example 70, (S)-5-chloro-2-fluoro-4-((2-(pyridin-3-yl)piperidin-1-yl)methyl)-N-(1,2,4-thiadiazol-5-yl)benzenesulfonamide]",0.175
14,"O=S(=O)(Nc1cccc(F)n1)c1ccc(CN2CCCC[C@H]2c2ccccc2)c(Cl)c1 [Example 73, (S)-3-chloro-N-(6-fluoropyridin-2-yl)-4-((2-phenylpiperidin-1-yl)methyl)-benzenesulfonamide]",6.8
15,"O=S(=O)(Nc1cccc(F)n1)c1ccc(CN2CCCC[C@@H]2c2ccccc2)c(Cl)c1 [Example 74, (R)-3-chloro-N-(6-fluoropyridin-2-yl)-4-((2-phenylpiperidin-1-yl)methyl)-benzenesulfonamide]",2.67
16,"O=S(=O)(Nc1ncns1)c1ccc2c(c1)OCCC2N1CCOC[C@H]1c1ccccc1 (stereo partly drawn) [Example 75, 4-((R)-3-phenylmorpholino)-N-(1,2,4-thiadiazol-5-yl)chromane-7-sulfonamide]",0.0859
17,"CN(Cc1ccccc1)[C@H]1CCOc2cc(S(=O)(=O)Nc3ncns3)c(F)cc21 [Example 89, (S)-4-(benzyl(methyl)amino)-6-fluoro-N-(1,2,4-thiadiazol-5-yl)chromane-7-sulfonamide]",0.096

# Source: patent US10787446B2 (GENENTECH, INC., priority 2015, dated 2020)
